Literature values as cited in article PMC7395068, “The evolution of strategies to minimise the risk of human drug-induced liver injury (DILI) in drug discovery and development” (Archives of Toxicology, 2020).
Read-outs that look alike come from different tables or passages of the source.

What was measured:
HepG2 cells = settings: cited from earlier work
[1] = cited from earlier work
[2] = tested on: HepG2 cells, primary human hepatocytes; settings: In vitro Assay; ref Garside 2014; cited from earlier work
rBsep = settings: In vitro Assay; ref Dawson 2012; cited from earlier work
[3] = tested on: THLE-Null and THLE-3A4 cells; settings: In vitro Assay; ref Gustafsson 2014; cited from earlier work
human hepatocytes = settings: cited from earlier work
[4] = ref Chen 2011; cited from earlier work
[5] = cited from earlier work; remark: listed apart in the source
[6] = tested on: HepG2 C3A spheroid, BSEP, Glu/Gal in HepG2 cells, bioactivation; settings: In vitro Assay; ref Williams 2019; cited from earlier work
hLiMTs = settings: In vitro Assay; ref Proctor 2017; cited from earlier work
[7] = tested on: THLE or HepG2 cells, isolated mitochondria, BSEP; settings: In vitro Assay; ref Aleo 2019; cited from earlier work
PHH spheroids = settings: In vitro Assay; ref Vorrink 2018; cited from earlier work
PHH = settings: In vitro Assay; ref Proctor 2017; cited from earlier work
[8] = tested on: primary human hepatocytes, NIH3T3 fibroblasts, BSEP, CYP3A4; settings: In vitro Assay; ref Schadt 2015; cited from earlier work
[9] = In vitro Assay, ref Tolosa 2012

SMILES: OC[C@H]1O[C@@H](O[C@H]2[C@H](O)[C@@H](O)C(O)O[C@@H]2CO)[C@H](O)[C@@H](O)[C@H]1O (mixture of isomers) [lactose]
- Structural based (HCI) (HepG2 cells): -VE
- In vivo DILI ([1]; in vivo): -VE

SMILES: O=[N+]([O-])c1ccc(O)c([N+](=O)[O-])c1 [2,4 dinitrophenol]
- Structural based (HCI) (HepG2 cells; [9]): +VE
- In vivo DILI ([1]; ref Tolosa 2012): +VE

SMILES: C#C[C@]1(O)CC[C@H]2[C@@H]3CCc4cc(O)ccc4[C@H]3CC[C@@]21C [17-a ethynylestradiol]
- Structural based (HCI) (HepG2 cells): +VE

SMILES: COc1cc(C)c(/C=C/C(C)=C/C=C/C(C)=C/C(=O)O)c(C)c1C [acitretin]
- Cluster 1-6 +VE Assay [2]: +VE
- Inhibition of rBsep cutoff<1& cmax u>.2 (rBsep): -VE
- Inhibition of rBsep cutoff<3 (rBsep): +VE
- THLE-Null [3]: +VE
- THLE-Null/3A4 [3]: +VE
- Structural based (HCI) (human hepatocytes): -VE
- In vivo DILI ([1]; in vivo): +VE
- DILI Score (FDA) (1-8) [4]: 5
- DILI +VE (5-8), DILI -VE (-4) ([5]; in vivo): +VE
- DILI severity category ([5]; in vivo): vMost-DILI-Concern

SMILES: COC(c1ccccc1)(c1ccccc1)[C@H](Oc1nc(C)cc(C)n1)C(=O)O [ambrisentan]
- Bayesian Machine Learning [6]: -VE
- hLiMTs ATP <100uM (hLiMTs): -VE
- Partition Hybrid HRM Score [7]: -VE
- Ro2 Hybrid HRM Score [7]: -VE
- hLiMTs ATP <20 x Cmax (PHH spheroids): -VE
- PHH ATP <100uM (PHH): -VE
- Cellular toxicity (3T3 cells) [8]: -VE
- Combined Assay [8]: -VE
- GSH adduct HML [8]: -VE
- Hepatocyte cellular toxicity [8]: -VE
- MitoTox 3T3 [8]: -VE
- TDI CYP3A4 [8]: -VE
- hBSEP inhibition [8]: -VE
- In vivo DILI ([1]; ref Proctor 2017): -VE
- In vivo DILI ([1]; ref Schadt 2015): -VE
- In vivo DILI ([1]; ref Vorrink 2018): -VE
- In vivo DILI ([1]; ref Williams 2019): -VE
- DILI Score (FDA) (1-8) [4]: 5
- DILI +VE (5-8), DILI -VE (-4) ([5]; ref Chen 2016): -VE
- DILI severity category ([5]; ref Chen 2016): Ambiguous DILI-concern

SMILES: CN1[C@@H]2CC[C@H]1C[C@@H](OC(=O)C(CO)c1ccccc1)C2 (some centres unmarked) [atropine]
- Structural based (HCI) (HepG2 cells): +VE

SMILES: CCCNC(=O)NS(=O)(=O)c1ccc(Cl)cc1 [chlorpropamide]
- Cluster 1-6 +VE Assay [2]: -VE
- Inhibition of rBsep cutoff<1& cmax u>.2 (rBsep): -VE
- Inhibition of rBsep cutoff<3 (rBsep): -VE
- THLE-Null [3]: -VE
- THLE-Null/3A4 [3]: -VE
- Partition Hybrid HRM Score [7]: -VE
- Ro2 Hybrid HRM Score [7]: +VE
- In vivo DILI ([1]; […]): +VE
- In vivo DILI ([1]; ref Aleo 2019): +VE
- In vivo DILI ([1]; ref Dawson 2012): +VE
- In vivo DILI ([1]; ref Garside 2014): +VE
- In vivo DILI ([1]; ref Gustafsson 2014): +VE
- DILI Score (FDA) (1-8) [4]: 2
- DILI +VE (5-8), DILI -VE (-4) ([5]; ref Chen 2016): +VE
- DILI severity category ([5]; ref Chen 2016): vLess-DILI-Concern

SMILES: CC(C)(OO)c1ccccc1 [cumene hydroperoxide]
- Structural based (HCI) (HepG2 cells; [9]): +VE
- In vivo DILI ([1]; ref Tolosa 2012): +VE
